In ChEMBL document CHEMBL1201862, “PubChem BioAssay data set” (2004):
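Step 1: Grow cells in 96-well plates. Step 2: Expose to compound for 48 hours at 5 concentrations. Step 3: Interpolate endpoints linearly; if unreached, use highest concentration. GI50: concentration for 50% inhibition of growth.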 Calls of active or inactive are those of the source. Rule as the data show it: active = GI50 up to about 1.1 µM and inactive = higher.

Experiments:
Assay in all cases: inhibition of tumour cell growth, NCI panel, 48 h
Hs-578T = system: Hs-578T
MDA-N = system: MDA-N
LOX IMVI = system: LOX IMVI
OVCAR-3 = system: OVCAR-3
HCT-15 = system: HCT-15
EKVX = system: EKVX
OVCAR-8 = system: OVCAR-8
SF-539 = system: SF-539
NCI-H460 = system: NCI-H460
SR = system: SR
OVCAR-4 = system: OVCAR-4
SK-OV-3 = system: SK-OV-3
CCRF-CEM = system: CCRF-CEM
UACC-257 = system: UACC-257
SF-295 = system: SF-295
COLO 205 = system: COLO 205
DU-145 = system: DU-145
K562 = system: K562
UACC-62 = system: UACC-62
U-251 = system: U-251

| SMILES | GI50 (Hs-578T) | GI50 (MDA-N) | GI50 (LOX IMVI) | GI50 (OVCAR-3) | GI50 (HCT-15) [µM] | GI50 (EKVX) | GI50 (OVCAR-8) | GI50 (SF-539) | GI50 (NCI-H460) | GI50 (SR) | GI50 (OVCAR-4) | GI50 (SK-OV-3) | GI50 (CCRF-CEM) | GI50 (UACC-257) | GI50 (SF-295) | GI50 (COLO 205) | GI50 (DU-145) | GI50 (K562) | GI50 (UACC-62) | GI50 (U-251) |
| --- | --- | --- | --- | --- | --- | --- | --- | --- | --- | --- | --- | --- | --- | --- | --- | --- | --- | --- | --- | --- |
| CC12CC3OC(=O)C1COC14OC5(C2C1=O)C(O)(CCC1C4CC2OC24CC=CC(=O)C14C)C(=O)OC35C (stereo not given) | > 100 µM (inactive) | 12.4 µM (inactive) | 11.3 µM (inactive) | 13.9 µM (inactive) | 16.4 | 32 µM (inactive) | 43.8 µM (inactive) | 12.6 µM (inactive) | 30.4 µM (inactive) | 8.85 µM (inactive) | 66.2 µM (inactive) | 28.6 µM (inactive) | 4.1 µM (inactive) | 13 µM (inactive) | 24.8 µM (inactive) | 10.3 µM (inactive) | 14.6 µM (inactive) | 12.8 µM (inactive) | 13.2 µM (inactive) | 14.5 µM (inactive) |
| O=C1N/C(=N\N=C\c2ccccc2)C(c2ccccc2)O1 (stereo not given) | > 100 µM (inactive) | > 100 µM (inactive) | 42.8 µM (inactive) | 27.4 µM (inactive) | 19.8 | 66.8 µM (inactive) | 47.5 µM (inactive) | > 100 µM (inactive) | 38.4 µM (inactive) | 23.6 µM (inactive) | 38.5 µM (inactive) | > 100 µM (inactive) | 12.7 µM (inactive) | 66.1 µM (inactive) | 42.5 µM (inactive) | 40.9 µM (inactive) | 53 µM (inactive) | 35.8 µM (inactive) | 75.7 µM (inactive) | 58.9 µM (inactive) |
| O=C1/C(=c2\s/c(=C\c3ccccc3)c(=O)n2-c2ccccc2)SC(=S)N1c1ccccc1 | 34.4 µM (inactive) | 94.6 µM (inactive) | 26.9 µM (inactive) | 27.2 µM (inactive) | > 100 | 35.6 µM (inactive) | 82.6 µM (inactive) | 21.5 µM (inactive) | 41 µM (inactive) | 10.7 µM (inactive) | 29.4 µM (inactive) | 21.9 µM (inactive) | 32.8 µM (inactive) | 72.9 µM (inactive) | 30.3 µM (inactive) | 63.5 µM (inactive) | 37.2 µM (inactive) | 47.2 µM (inactive) | 35.6 µM (inactive) | 23.4 µM (inactive) |
| O=C(O)c1cccc(S(=O)(=O)NCCO)c1 | > 100 µM (inactive) | > 100 µM (inactive) | > 100 µM (inactive) | > 100 µM (inactive) | > 100 | > 100 µM (inactive) | > 100 µM (inactive) | > 100 µM (inactive) | > 100 µM (inactive) | > 100 µM (inactive) | > 100 µM (inactive) | > 100 µM (inactive) | > 100 µM (inactive) | > 100 µM (inactive) | > 100 µM (inactive) | > 100 µM (inactive) | > 100 µM (inactive) | > 100 µM (inactive) | > 100 µM (inactive) | > 100 µM (inactive) |
